Measured values: US20140255968A1, “METHOD FOR FABRICATING A PATTERNED SUBSTRATE FOR A CELL CULTURE, A PATTERNED SUBSTRATE FOR CELL CULTURE, AND A CELL CHIP” (RESEARCH & BUSINESS FOUNDATION SUNGKYUNKWAN UNIVERSITY, priority 2013, published 2014)
Entries after “also recorded” stand apart in the source; their conditions may differ. Where two headings read alike, the source gives them in different places.

System: bovine aortic endothelial cells (BAECs)
Test: Angiogenesis assay on patterned cell chip
Assay type: cell-based
Method: In an angiogenesis assay using the fabricated substrate, bovine aortic endothelial cells (BAECs) were used. To prevent contamination, the substrate fabricated in Example 1-2 was placed in a Petri dish and irradiated with UV light for 16 hours prior to the test. BAEC cells were seeded in 2 ml of complete medium (low glucose DMEM (Dulbecco's Modified Eagle's Medium, WELGENE) containing 1× penicillin/streptomycine (WELGENE) and 20% fetal bovine serum (FBS, WELGENE)) at a cell concentration of 2.5×10^5 cells/ml, and then cultured in a 5% CO2 incubator at 37° C. for 6 hours. Next, the complete medium was replaced with the following media. • untreated plate (normal control group): 10 ml of low-glucose DMEM containing 1× penicillin/streptomycin and 0.2% FBS; • LPS (lipopolysaccharide)-treated plate (negative control group): 10 ml of low-glucose DMEM containing 1× penicillin/streptomycin, 0.2% FBS and 100 ng/ml of LPS; or • VEGF (vascular endothelial growth factor)-treated plate (positive control group): 10 ml of low-glucose DMEM containing 1× penicillin/streptomycin, 0.2% FBS and 100 ng/ml of VEGF. To prevent cells on the substrate from being dried due to evaporation of the media in the incubator, the volume of the media was increased to 10 ml, and to more accurately confirm the effect of the positive control group (VEGF-treated plate), starvation basic medium having a decreased FBS (a kind of growth factor) concentration of 0.2% was used.

[1] = 100 ng/ml in low-glucose DMEM with 0.2% FBS, 18 hours, optical microscope

Substance | angiogenesis on the patterned cell chip compared with the untreated case | formation of tube-shaped blood vessels [1] | number of cells in the regions between cell adsorbing H2/He plasma treated areas, compared with untreated [1] | angiogenesis on the patterned cell chip compared with the untreated case [1]
vascular endothelial growth factor [VEGF] | angiogenesis was induced and promoted | tube-shaped blood vessels were newly formed | proliferation of cells significantly increased; also recorded: significantly larger number of the cells | –
lipopolysaccharide [LPS] | – | – | significant decrease in the number of cells; also recorded: smaller number of cells | angiogenesis was inhibited
